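Cells were grown in 96-well plates and exposed to each compound for 48 hours at five concentrations; endpoints were interpolated linearly between bracketing concentrations, or set to the highest concentration if not reached. GI50: concentration for 50% inhibition of growth.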 The source made the active and inactive calls. No stated cut-off is given here; in the data, active = GI50 up to about 1.1 µM and inactive = higher.
Key:
Experiment in all cases: NCI tumour cell line growth inhibition, 48 h
SK-OV-3 = tested on: SK-OV-3
DU-145 = tested on: DU-145
HL-60 = tested on: HL-60
CAKI-1 = tested on: CAKI-1
OVCAR-4 = tested on: OVCAR-4
SN12C = tested on: SN12C
SNB-19 = tested on: SNB-19
A498 = tested on: A498
OVCAR-5 = tested on: OVCAR-5
KM12 = tested on: KM12
HCC 2998 = tested on: HCC 2998
NCI-H226 = tested on: NCI-H226
OVCAR-8 = tested on: OVCAR-8
LOX IMVI = tested on: LOX IMVI
SK-MEL-5 = tested on: SK-MEL-5
SNB-75 = tested on: SNB-75
COLO 205 = tested on: COLO 205
HOP-92 = tested on: HOP-92
MDA-MB-435 = tested on: MDA-MB-435

Measured: GI50

N#Cc1c(N2CCCC2)ncn(-c2ccccc2)c1=O
inactive: SK-OV-3 > 100 µM | DU-145 > 100 µM | HL-60 > 100 µM | CAKI-1 > 100 µM | OVCAR-4 > 100 µM | SN12C > 100 µM | SNB-19 > 100 µM | A498 > 100 µM | OVCAR-5 > 100 µM | KM12 > 100 µM | HCC 2998 > 100 µM | NCI-H226 > 100 µM | OVCAR-8 > 100 µM | LOX IMVI > 100 µM | SK-MEL-5 > 100 µM | SNB-75 > 100 µM | COLO 205 > 100 µM | HOP-92 > 100 µM | MDA-MB-435 > 100 µM

O=C(O)c1cccc(OCCOc2cccc(C(=O)O)c2[N+](=O)[O-])c1[N+](=O)[O-]
inactive: SK-OV-3 > 100 µM | DU-145 > 100 µM | HL-60 > 100 µM | CAKI-1 > 100 µM | OVCAR-4 > 100 µM | SN12C > 100 µM | SNB-19 > 100 µM | A498 > 100 µM | OVCAR-5 > 100 µM | KM12 > 100 µM | HCC 2998 > 100 µM | NCI-H226 > 100 µM | OVCAR-8 > 100 µM | LOX IMVI > 100 µM | SK-MEL-5 > 100 µM | SNB-75 > 100 µM | COLO 205 > 100 µM | HOP-92 > 100 µM | MDA-MB-435 > 100 µM

O=C(/C=C/c1ccc([N+](=O)[O-])cc1)N1CCN(CCOC(c2ccc(F)cc2)c2ccc(F)cc2)CC1
inactive: SK-OV-3 > 100 µM | DU-145 18.4 µM | HL-60 9.68 µM | CAKI-1 18.2 µM | OVCAR-4 8.75 µM | SN12C 4.04 µM | SNB-19 > 100 µM | A498 16 µM | OVCAR-5 > 100 µM | KM12 7.36 µM | HCC 2998 29.2 µM | NCI-H226 > 100 µM | OVCAR-8 8.87 µM | LOX IMVI 24.6 µM | SK-MEL-5 13.9 µM | SNB-75 4.7 µM | COLO 205 11.5 µM | HOP-92 6.58 µM | MDA-MB-435 9.84 µM

COC(=O)[C@H](COC(C)(C)C)NC(=O)N[C@H](C)c1ccccc1
inactive: SK-OV-3 > 100 µM | DU-145 > 100 µM | HL-60 > 100 µM | CAKI-1 > 100 µM | OVCAR-4 > 100 µM | SN12C > 100 µM | SNB-19 > 100 µM | A498 > 100 µM | OVCAR-5 > 100 µM | KM12 > 100 µM | HCC 2998 > 100 µM | NCI-H226 > 100 µM | OVCAR-8 > 100 µM | LOX IMVI > 100 µM | SK-MEL-5 > 100 µM | SNB-75 > 100 µM | COLO 205 > 100 µM | HOP-92 > 100 µM | MDA-MB-435 > 100 µM

CCOC1C=CC(=O)C(CO)O1 (configuration not stated)
inactive: SK-OV-3 18.8 µM | DU-145 15.8 µM | HL-60 5.57 µM | CAKI-1 13.4 µM | OVCAR-4 8.97 µM | SN12C 13.3 µM | SNB-19 19.7 µM | A498 26.2 µM | OVCAR-5 18.1 µM | KM12 16.4 µM | HCC 2998 17.4 µM | NCI-H226 24 µM | OVCAR-8 11.6 µM | LOX IMVI 5.58 µM | SK-MEL-5 21.1 µM | SNB-75 15.3 µM | COLO 205 13.4 µM | HOP-92 2.57 µM | MDA-MB-435 12.2 µM

COc1cc(C2SCC(=O)N2c2cccc(Cl)c2)cc(OC)c1OC (configuration not stated)
inactive: SK-OV-3 > 100 µM | DU-145 63.7 µM | HL-60 35.3 µM | CAKI-1 55.7 µM | OVCAR-4 54.6 µM | SN12C 56.9 µM | SNB-19 11.4 µM | A498 > 100 µM | OVCAR-5 > 100 µM | KM12 47.8 µM | HCC 2998 > 100 µM | NCI-H226 > 100 µM | OVCAR-8 > 100 µM | LOX IMVI 70.1 µM | SK-MEL-5 > 100 µM | COLO 205 > 100 µM | HOP-92 31.2 µM | MDA-MB-435 29.5 µM

CCCCNc1nc(O)c2[nH]cnc2n1
inactive: SK-OV-3 > 100 µM | DU-145 > 100 µM | CAKI-1 > 100 µM | OVCAR-4 > 100 µM | SN12C > 100 µM | SNB-19 > 100 µM | A498 > 100 µM | OVCAR-5 > 100 µM | KM12 > 100 µM | HCC 2998 > 100 µM | NCI-H226 > 100 µM | OVCAR-8 > 100 µM | LOX IMVI > 100 µM | SK-MEL-5 > 100 µM | SNB-75 > 100 µM | COLO 205 > 100 µM | HOP-92 > 100 µM | MDA-MB-435 > 100 µM

CC1(C)C2CCC3CC(CCC#N)CCC3C21C#N (configuration not stated)
inactive: SK-OV-3 > 100 µM | DU-145 > 100 µM | HL-60 > 100 µM | CAKI-1 > 100 µM | OVCAR-4 > 100 µM | SN12C > 100 µM | SNB-19 > 100 µM | A498 > 100 µM | OVCAR-5 > 100 µM | KM12 18 µM | HCC 2998 > 100 µM | NCI-H226 > 100 µM | OVCAR-8 > 100 µM | LOX IMVI > 100 µM | SK-MEL-5 > 100 µM | COLO 205 > 100 µM | HOP-92 > 100 µM | MDA-MB-435 > 100 µM

Cc1c2c(n3c(nc4ccccc43)c1C#N)N(c1ccc(F)cc1)CC2
inactive: SK-OV-3 74.5 µM | DU-145 > 100 µM | HL-60 > 100 µM | CAKI-1 > 100 µM | OVCAR-4 41.4 µM | SN12C > 100 µM | SNB-19 > 100 µM | A498 > 100 µM | OVCAR-5 > 100 µM | HCC 2998 > 100 µM | NCI-H226 > 100 µM | OVCAR-8 > 100 µM | LOX IMVI > 100 µM | SK-MEL-5 > 100 µM | SNB-75 > 100 µM | COLO 205 > 100 µM | HOP-92 > 100 µM | MDA-MB-435 > 100 µM

Cc1c(C)c(S(=O)(=O)N(CCCN)OCCCN)c(C)c2c1OC(C)(C)CC2
inactive: SK-OV-3 15.4 µM | DU-145 16 µM | CAKI-1 16.5 µM | OVCAR-4 8.17 µM | SN12C 15.1 µM | SNB-19 11.8 µM | A498 12.9 µM | OVCAR-5 13 µM | KM12 12.4 µM | HCC 2998 4.14 µM | NCI-H226 13.4 µM | OVCAR-8 16.3 µM | LOX IMVI 13.3 µM | SK-MEL-5 15.6 µM | SNB-75 11.3 µM | COLO 205 17.5 µM | HOP-92 7.5 µM | MDA-MB-435 15.8 µM

CCCCCCCCCCCCn1c(=O)cc(NCCCC)c2cc3c(NCCCC)cc(=O)n(CCCCCCCCCCCC)c3nc21
inactive: SK-OV-3 > 100 µM | DU-145 > 100 µM | CAKI-1 > 100 µM | OVCAR-4 > 100 µM | SN12C > 100 µM | SNB-19 > 100 µM | A498 > 100 µM | KM12 > 100 µM | HCC 2998 > 100 µM | NCI-H226 > 100 µM | SK-MEL-5 > 100 µM | SNB-75 > 100 µM | COLO 205 > 100 µM | HOP-92 > 100 µM | MDA-MB-435 > 100 µM

O=C(/C(=C(/Br)I)c1ccccc1)c1ccccc1
inactive: SK-OV-3 38.5 µM | DU-145 14.3 µM | HL-60 28 µM | CAKI-1 38.5 µM | SN12C 17.8 µM | SNB-19 38.2 µM | A498 15 µM | OVCAR-5 48.6 µM | KM12 19.5 µM | HCC 2998 13.6 µM | NCI-H226 19.3 µM | OVCAR-8 23.5 µM | LOX IMVI 13.9 µM | SK-MEL-5 14.6 µM | SNB-75 26.3 µM | COLO 205 17.6 µM | HOP-92 18.8 µM | MDA-MB-435 28.8 µM

CC(C)(C)OC(=O)NC(Cc1ccc(OCc2ccccc2)cn1)C(N)=O (configuration not stated)
inactive: DU-145 > 100 µM | HL-60 > 100 µM | CAKI-1 > 100 µM | OVCAR-4 45.7 µM | SN12C > 100 µM | SNB-19 > 100 µM | A498 > 100 µM | OVCAR-5 > 100 µM | KM12 > 100 µM | HCC 2998 > 100 µM | NCI-H226 97.3 µM | OVCAR-8 > 100 µM | LOX IMVI > 100 µM | SK-MEL-5 26 µM | SNB-75 > 100 µM | COLO 205 > 100 µM | HOP-92 > 100 µM | MDA-MB-435 > 100 µM

Cc1ccc(C(=O)c2[nH]c(NCc3ccccc3)c(C(=S)Nc3ccccc3)c2N)cc1
inactive: SK-OV-3 2.77 µM | DU-145 13.8 µM | HL-60 16.3 µM | CAKI-1 14.3 µM | OVCAR-4 2.74 µM | SN12C 14.5 µM | SNB-19 14.7 µM | A498 17 µM | OVCAR-5 14 µM | KM12 2.28 µM | HCC 2998 1.29 µM | NCI-H226 11.5 µM | OVCAR-8 12.1 µM | LOX IMVI 2.01 µM | SNB-75 4.85 µM | COLO 205 3.87 µM | HOP-92 6.58 µM | MDA-MB-435 3.28 µM

Cc1cccc2c1NC(=S)[C@@H]1CCCN1C2=O
inactive: SK-OV-3 > 100 µM | DU-145 > 100 µM | CAKI-1 > 100 µM | OVCAR-4 > 100 µM | SN12C > 100 µM | SNB-19 > 100 µM | A498 > 100 µM | OVCAR-5 > 100 µM | KM12 > 100 µM | HCC 2998 > 100 µM | NCI-H226 > 100 µM | OVCAR-8 > 100 µM | LOX IMVI > 100 µM | SK-MEL-5 > 100 µM | SNB-75 54 µM | COLO 205 > 100 µM | HOP-92 > 100 µM | MDA-MB-435 > 100 µM
